Reference: ChEMBL document CHEMBL1201862, “PubChem BioAssay data set” (2004)
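Tested at 5 concentrations; 48 h exposure; 96-well plates; endpoints linearly interpolated, else capped at highest concentration. Abbreviation: GI50, concentration required for 50% inhibition of growth.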 Calls of active or inactive are those of the source. Rule as the data show it: active = GI50 up to about 1.1 µM and inactive = higher.

Columns and labels:
Test in all cases: inhibition of tumour cell growth, NCI panel, 48 h
[1] = tested on: LOX IMVI
[2] = tested on: SN12C
[3] = tested on: SF-268
[4] = tested on: 786-0
[5] = tested on: MDA-MB-435
[6] = tested on: RXF 393
[7] = tested on: HOP-62
[8] = tested on: IGROV-1
[9] = tested on: SF-295
[10] = tested on: SNB-19
[11] = tested on: U-251
[12] = tested on: MDA-MB-231
[13] = tested on: UO-31
[14] = tested on: MDA-N
[15] = tested on: RPMI-8226
[16] = tested on: K562
[17] = tested on: SNB-75
[18] = tested on: NCI-H226

Measured: GI50

COc1ccc(C(O)(c2ccccc2)c2nccc3ccccc23)cc1 (configuration not stated)
inactive: [1] 5.18 µM | [2] 22.1 µM | [3] 12.4 µM | [4] 7.62 µM | [5] 3.6 µM | [6] 3.19 µM | [7] 5.28 µM | [8] 9.86 µM | [9] 6.76 µM | [10] 11.9 µM | [11] 11.7 µM | [12] 7.31 µM | [13] 21 µM | [14] 3.2 µM | [15] 7.36 µM | [16] 2.7 µM

S=C(Nc1cccc(Cl)c1)Nc1ccccn1
inactive: [1] > 100 µM | [17] 1.14 µM | [2] > 100 µM | [3] > 100 µM | [4] > 100 µM | [5] > 100 µM | [6] > 100 µM | [7] > 100 µM | [18] > 100 µM | [8] > 100 µM | [9] > 100 µM | [10] > 100 µM | [11] > 100 µM | [13] > 100 µM | [15] > 100 µM | [16] > 100 µM

COc1cc(S(=O)(=O)Nc2ccc(-c3csc(N4C(=O)C(Cl)C4c4cccs4)n3)cc2)ccc1Cl (configuration not stated)
inactive: [1] 2.43 µM | [17] > 100 µM | [2] 82.6 µM | [3] 39 µM | [4] 25.8 µM | [5] 72.9 µM | [6] 23.5 µM | [7] > 100 µM | [18] 46 µM | [8] 18.2 µM | [9] > 100 µM | [10] > 100 µM | [13] 84.3 µM | [14] 65 µM | [15] 26.9 µM | [16] 31.8 µM

CC(C)=Cc1cc2c(cc1O)CCC1C2CC[C@@]2(C)C1CC[C@@H]2O (some centres not stated)
inactive: [1] 3.97 µM | [17] 3.56 µM | [2] 14.7 µM | [3] 16.7 µM | [4] 12.4 µM | [6] 6.01 µM | [18] 8.81 µM | [8] 12.8 µM | [9] 2.26 µM | [10] 11.6 µM | [11] 10.4 µM | [12] 16.3 µM | [13] 13.3 µM | [14] 2.44 µM | [15] 5.14 µM | [16] 3.75 µM

Cc1cccc2cc3c(ccc4ccccc43)c[n+]12
inactive: [1] 50 µM | [17] 6.56 µM | [2] 3.18 µM | [3] 2.83 µM | [4] 18 µM | [5] 33.4 µM | [6] 53 µM | [7] 7.89 µM | [8] 47.1 µM | [9] 9.86 µM | [10] 6.87 µM | [11] 2.99 µM | [12] 47.5 µM | [13] 30.1 µM | [14] 37.9 µM | [15] 22.5 µM | [16] 30.1 µM

CC(C)=CCC12Cc3ccc(O)cc3C(C(C)CN1)C2C (configuration not stated)
inactive: [1] 42.9 µM | [17] 99.5 µM | [2] > 100 µM | [3] > 100 µM | [4] > 100 µM | [5] 44.9 µM | [6] > 100 µM | [7] > 100 µM | [18] > 100 µM | [8] > 100 µM | [9] 65.2 µM | [10] > 100 µM | [11] 83.4 µM | [12] > 100 µM | [13] 27 µM | [15] 37.2 µM | [16] 34.4 µM

CC(C)(C)OC(=O)N(CCCCNC(=O)OCc1ccccc1)CCCNC(=O)OCc1ccccc1
inactive: [17] 51.9 µM | [2] 53.3 µM | [3] > 100 µM | [4] 91 µM | [5] 35.8 µM | [6] 30 µM | [7] > 100 µM | [18] > 100 µM | [8] > 100 µM | [9] 25.9 µM | [10] > 100 µM | [11] 35.6 µM | [12] 90.2 µM | [13] 5.7 µM | [15] 12.6 µM | [16] 23.3 µM

CCNC(=O)c1cc(/C=C/c2ccc([N+](=O)[O-])o2)nc2ccccc12
inactive: [1] 2.85 µM | [17] 22 µM | [2] 15.3 µM | [3] 23.7 µM | [4] 11.3 µM | [5] 2.19 µM | [6] 10.2 µM | [7] 19.6 µM | [18] 5.15 µM | [8] 5.69 µM | [9] 41.7 µM | [10] 54.7 µM | [11] 71.9 µM | [12] 14.9 µM | [13] 50.5 µM | [15] 29.4 µM | [16] 6.79 µM

N#CC(Cc1ccccc1)N(CCC1=CCCCC1)C(c1ccccc1)c1ccccc1 (configuration not stated)
inactive: [17] > 100 µM | [3] > 100 µM | [4] > 100 µM | [5] 41.1 µM | [6] 27.9 µM | [7] > 100 µM | [8] > 100 µM | [9] > 100 µM | [10] > 100 µM | [11] 69.5 µM | [12] > 100 µM | [13] 50.6 µM | [14] 24.4 µM | [15] 33.3 µM | [16] 80.4 µM

COc1ccc(-c2nc3ccccc3s2)cc1OC
inactive: [1] 27.1 µM | [17] > 100 µM | [2] 83.6 µM | [4] 44.6 µM | [5] > 100 µM | [7] 67.9 µM | [9] 25.8 µM | [10] 4.75 µM | [11] 53.8 µM | [12] 19.7 µM | [13] 41.7 µM | [14] 64.4 µM | [15] 22.7 µM | [16] > 100 µM

CC1CC(=O)N(N(C)C)C2(C#N)C(=O)N=C(N)C12C#N (configuration not stated)
inactive: [1] > 100 µM | [17] > 100 µM | [2] > 100 µM | [3] > 100 µM | [4] > 100 µM | [5] > 100 µM | [6] > 100 µM | [7] > 100 µM | [8] > 100 µM | [9] > 100 µM | [10] > 100 µM | [11] > 100 µM | [12] > 100 µM | [13] > 100 µM | [14] > 100 µM | [15] 35.4 µM | [16] 27.2 µM

COc1ccccc1-c1nc[nH]c1-c1ccccc1OC
inactive: [1] 16.8 µM | [17] 14.6 µM | [2] 38 µM | [3] 14.4 µM | [4] 35.5 µM | [6] 24.5 µM | [7] 40.8 µM | [8] 29 µM | [9] 26 µM | [10] 35.2 µM | [12] 21.7 µM | [13] 45.1 µM | [14] 16.1 µM | [15] 29.3 µM | [16] 19.9 µM
